# Measured values: PubChem BioAssay AID2060499 (Molecular Pharmacology Branch, DTP, NCI, 2025)
# System: 777334-354-R2-J4-PDC tumor spheroids with HUVEC/MSC, viability
# Experiment: Anticancer human tumor 777334-354-R2-J4-PDC patient-derived pancreatic adenocarcinoma cell line growth inhibition [GQUAD]
# Conditions: for IC50: curve of first compound; for viability, T/C: stronger effect = lower value
# Summary of the method: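 Viability of tumor cells grown as complex spheroids with endothelial and stromal cells, exposed to drug combinations. Top concentration at or near clinical Cmax (else 10 microM), diluted in half-log increments.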
# [1] = second compound 0.0316 µM, first compound 0.0316 µM
# [2] = second compound 0.0316 µM, first compound 0.316 µM
# [3] = second compound 0.1 µM, first compound 0.0316 µM
# [4] = second compound 0.1 µM, first compound 0.316 µM
# [5] = second compound 0.316 µM, first compound 0.0316 µM
# [6] = second compound 0.316 µM, first compound 0.316 µM
# [7] = second compound 1 µM, first compound 0.0316 µM
# [8] = second compound 1 µM, first compound 0.316 µM
# [9] = second compound 3.16 µM, first compound 0.0316 µM
# [10] = second compound 3.16 µM, first compound 0.316 µM
# [11] = second compound 10 µM, first compound 0.0316 µM
# [12] = second compound 10 µM, first compound 0.316 µM
# [13] = second compound 0.0316 µM, first compound 0.1 µM
# [14] = second compound 0.0316 µM, first compound 1 µM
# [15] = second compound 0.0316 µM, first compound 3.16 µM
# [16] = second compound 0.0316 µM, first compound 10 µM
# [17] = second compound 0.1 µM, first compound 0.1 µM
# [18] = second compound 0.1 µM, first compound 1 µM
# [19] = second compound 0.1 µM, first compound 3.16 µM
# [20] = second compound 0.1 µM, first compound 10 µM
# [21] = second compound 0.316 µM, first compound 0.1 µM
# [22] = second compound 0.316 µM, first compound 1 µM
# [23] = second compound 0.316 µM, first compound 3.16 µM
# [24] = second compound 0.316 µM, first compound 10 µM
# [25] = second compound 1 µM, first compound 0.1 µM
# [26] = second compound 1 µM, first compound 1 µM
# [27] = second compound 1 µM, first compound 3.16 µM
# [28] = second compound 1 µM, first compound 10 µM
# [29] = second compound 3.16 µM, first compound 0.1 µM
# [30] = second compound 3.16 µM, first compound 1 µM
# [31] = second compound 3.16 µM, first compound 3.16 µM
# [32] = second compound 3.16 µM, first compound 10 µM
# [33] = second compound 10 µM, first compound 0.1 µM
# [34] = second compound 10 µM, first compound 1 µM
# [35] = second compound 10 µM, first compound 3.16 µM
# [36] = second compound 10 µM, first compound 10 µM
# 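Note: spheroids exposed to compounds for 7 days before readout.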
structure (smiles),measurement,setting,value
CCc1c2c(nc3ccc(O)cc13)-c1cc3c(c(=O)n1C2)COC(=O)[C@]3(O)CC + CN(C)c1ccc(Nc2c3ccc(NC(=O)CCN4CCCC4)cc3nc3cc(NC(=O)CCN4CCCC4)ccc23)cc1,IC50,second compound 0.0316 µM,5.23 nM
same,IC50,second compound 0.1 µM,4.26 nM
same,IC50,second compound 0.316 µM,5.24 nM
same,IC50,second compound 1 µM,4.96 nM
same,IC50,second compound 3.16 µM,3.16 nM
same,IC50,second compound 10 µM,4.78 nM
same,"viability, T/C","second compound 0.0316 µM, first compound 0.000999 µM",105%
same,"viability, T/C","second compound 0.0316 µM, first compound 0.00316 µM",57.8%
same,"viability, T/C","second compound 0.0316 µM, first compound 0.00999 µM",38.6%
same,"viability, T/C",[1],23.4%
same,"viability, T/C","second compound 0.0316 µM, first compound 0.0999 µM",15.9%
same,"viability, T/C",[2],9.58%
same,"viability, T/C","second compound 0.1 µM, first compound 0.000999 µM",85.1%
same,"viability, T/C","second compound 0.1 µM, first compound 0.00316 µM",51.9%
same,"viability, T/C","second compound 0.1 µM, first compound 0.00999 µM",39.6%
same,"viability, T/C",[3],22.4%
same,"viability, T/C","second compound 0.1 µM, first compound 0.0999 µM",14.7%
same,"viability, T/C",[4],11.4%
same,"viability, T/C","second compound 0.316 µM, first compound 0.000999 µM",79.6%
same,"viability, T/C","second compound 0.316 µM, first compound 0.00316 µM",61.9%
same,"viability, T/C","second compound 0.316 µM, first compound 0.00999 µM",34.6%
same,"viability, T/C",[5],21.4%
same,"viability, T/C","second compound 0.316 µM, first compound 0.0999 µM",15.3%
same,"viability, T/C",[6],9.02%
same,"viability, T/C","second compound 1 µM, first compound 0.000999 µM",84.3%
same,"viability, T/C","second compound 1 µM, first compound 0.00316 µM",57%
same,"viability, T/C","second compound 1 µM, first compound 0.00999 µM",38.8%
same,"viability, T/C",[7],23.9%
same,"viability, T/C","second compound 1 µM, first compound 0.0999 µM",13.8%
same,"viability, T/C",[8],8.31%
same,"viability, T/C","second compound 3.16 µM, first compound 0.000999 µM",74.9%
same,"viability, T/C","second compound 3.16 µM, first compound 0.00316 µM",49.3%
same,"viability, T/C","second compound 3.16 µM, first compound 0.00999 µM",31.9%
same,"viability, T/C",[9],24.7%
same,"viability, T/C","second compound 3.16 µM, first compound 0.0999 µM",15.9%
same,"viability, T/C",[10],9.07%
same,"viability, T/C","second compound 10 µM, first compound 0.000999 µM",79.5%
same,"viability, T/C","second compound 10 µM, first compound 0.00316 µM",57.9%
same,"viability, T/C","second compound 10 µM, first compound 0.00999 µM",35.8%
same,"viability, T/C",[11],26.8%
same,"viability, T/C","second compound 10 µM, first compound 0.0999 µM",19.6%
same,"viability, T/C",[12],9.4%
O=C(c1cc(Cc2n[nH]c(=O)c3ccccc23)ccc1F)N1CCN(C(=O)C2CC2)CC1 + Cc1[nH]c2ccc(F)cc2c1-c1nc2c3cccnc3c3ncccc3c2[nH]1,IC50,second compound 0.0316 µM,> 10000 nM
same,IC50,second compound 0.1 µM,> 10000 nM
same,IC50,second compound 0.316 µM,> 10000 nM
same,IC50,second compound 1 µM,> 10000 nM
same,IC50,second compound 3.16 µM,< 31.6 nM
same,IC50,second compound 10 µM,< 31.6 nM
same,"viability, T/C",[1],95.4%
same,"viability, T/C",[13],95.8%
same,"viability, T/C",[2],102%
same,"viability, T/C",[14],98.7%
same,"viability, T/C",[15],93.6%
same,"viability, T/C",[16],83.1%
same,"viability, T/C",[3],98.6%
same,"viability, T/C",[17],98.9%
same,"viability, T/C",[4],99.5%
same,"viability, T/C",[18],92.5%
same,"viability, T/C",[19],103%
same,"viability, T/C",[20],78.7%
same,"viability, T/C",[5],99.2%
same,"viability, T/C",[21],98.7%
same,"viability, T/C",[6],95.1%
same,"viability, T/C",[22],103%
same,"viability, T/C",[23],106%
same,"viability, T/C",[24],76%
same,"viability, T/C",[7],75.5%
same,"viability, T/C",[25],89.7%
same,"viability, T/C",[8],91.6%
same,"viability, T/C",[26],82.9%
same,"viability, T/C",[27],89.2%
same,"viability, T/C",[28],82.5%
same,"viability, T/C",[9],37.8%
same,"viability, T/C",[29],39.2%
same,"viability, T/C",[10],36.4%
same,"viability, T/C",[30],38.2%
same,"viability, T/C",[31],43%
same,"viability, T/C",[32],32.8%
same,"viability, T/C",[11],24.9%
same,"viability, T/C",[33],35.9%
same,"viability, T/C",[12],39%
same,"viability, T/C",[34],33.7%
same,"viability, T/C",[35],36.5%
same,"viability, T/C",[36],33%
O=c1[nH]cc(F)c(=O)[nH]1 + Cc1cnc(CNC(=O)c2c(=O)c3ccc(N4CCCN(C)CC4)nc3n3c2sc2ccccc23)cn1,IC50,second compound 0.0316 µM,> 10000 nM
same,IC50,second compound 0.1 µM,> 10000 nM
same,IC50,second compound 0.316 µM,> 10000 nM
same,IC50,second compound 1 µM,> 10000 nM
same,IC50,second compound 3.16 µM,> 10000 nM
same,IC50,second compound 10 µM,> 10000 nM
same,"viability, T/C",[1],97.7%
same,"viability, T/C",[13],94.8%
same,"viability, T/C",[2],91.9%
same,"viability, T/C",[14],87.9%
same,"viability, T/C",[15],69.5%
same,"viability, T/C",[16],64.5%
same,"viability, T/C",[3],82.4%
same,"viability, T/C",[17],84.8%
same,"viability, T/C",[4],89%
same,"viability, T/C",[18],80.1%
same,"viability, T/C",[19],82%
same,"viability, T/C",[20],68.3%
same,"viability, T/C",[5],85.3%
same,"viability, T/C",[21],82.8%
same,"viability, T/C",[6],73.8%
same,"viability, T/C",[22],75.8%
same,"viability, T/C",[23],74.7%
same,"viability, T/C",[24],66.5%
same,"viability, T/C",[7],71.3%
same,"viability, T/C",[25],66.8%
same,"viability, T/C",[8],68%
same,"viability, T/C",[26],67.7%
same,"viability, T/C",[27],73.2%
same,"viability, T/C",[28],65.7%
same,"viability, T/C",[9],59.4%
same,"viability, T/C",[29],73.2%
same,"viability, T/C",[10],67.3%
same,"viability, T/C",[30],61.6%
same,"viability, T/C",[31],68.8%
same,"viability, T/C",[32],56%
same,"viability, T/C",[11],57.7%
same,"viability, T/C",[33],61.9%
same,"viability, T/C",[12],59%
same,"viability, T/C",[34],59.7%
same,"viability, T/C",[35],50.8%
same,"viability, T/C",[36],51.8%
